Measurements from patent publication US20070280918A1, “Multitherapy Against Cancer” (priority 2004, published 2007).
Where “and” joins values, the source holds several entries; their conditions need not be identical. Equal entries are not always repeated. Where two headings read alike, the source gives them in different places.

Key:
[1] = test system: type L1210 intra-peritoneal lymphoma; assay: Mortality of mice carrying type L1210 intra-peritoneal lymphoma; type: in vivo; conditions: for Ratio % Treated/controls (T/C%): median survival times; for anti-tumour effectiveness (in words): T/C% greater than 125%
Method: Mice carrying a type L1210 intra-peritoneal lymphoma were treated for 7 days in parallel with the following preparations: • SYN857 (A): chlorophosphoenol pyruvate • SYN856 (B): chlorophosphoenol pyruvate and carnitine ester • BCNU: carmustine • Vehicle: control
The weight of the animals for each group as well as the individual weight curves as a function of time were plotted and the mortality of the animals was monitored.
The parameter T/C% is calculated with the ratio of the median survival time of the animals in the group considered to the median survival time of the animals in the control group, all multiplied by 100.

[2] = test system: NCI-H460; assay: Growth inhibition of NCI-H460 cells, products alone (IC50) and in combination (CI, Chou and Talalay); type: cell-based; conditions: Avandia alone
Method: (§1) 1) Prior determination of the IC50 of the products taken in isolation on the cell lines.
(§2) Different concentration ratios were established, which were tested on the different cell lines.
(§3) For each cell line three tests were carried out.

[3] = test system: Calu-6; assay: Growth inhibition of Calu-6 cells, products alone (IC50) and in combination (CI, Chou and Talalay); type: cell-based; conditions: for IC50 (order of magnitude, in words): the cell lines tested (Calu-6 and NCI-H460)
Method: as §1, §2, §3

[4] = test system: Calu-6; assay: Fraction affected (Fa) and synergy index (CI) on lung cell line Calu-6, betaine citrate/metformin; type: cell-based
Source text: The cell line adopted for carrying out the experiment is the line Calu-6.
These Fa values are used in the calculation of the synergy index (CI) which makes it possible to report the presence or absence of synergy between the products.

[5] = product alone at 0.10 mM, three experiments
[6] = product alone at 0.20 mM, three experiments
[7] = product alone at 1.00 mM, three experiments
[8] = product alone at 2.00 mM, three experiments
[9] = product alone at 4.00 mM, three experiments

| IC50 (order of magnitude, in words) [3] | Molecule | anti-tumour effectiveness (in words) ([1]; L1210 lymphoma mice) | Fa Exp 1 ([4]; product alone at 0.05 mM) | Fa Exp 1 ([4]; product alone at 0.10 mM) | Fa Exp 3 ([4]; product alone at 0.10 mM) | Average Fa [4, 5] | Fa Exp 1 ([4]; product alone at 0.20 mM) | Fa Exp 3 ([4]; product alone at 0.20 mM) | Average Fa [4, 6] | Fa Exp 1 ([4]; product alone at 0.25 mM) | Fa Exp 2 ([4]; product alone at 0.25 mM) | Fa Exp 3 ([4]; product alone at 0.25 mM) | Fa Exp 1 ([4]; product alone at 0.50 mM) | Fa Exp 2 ([4]; product alone at 0.50 mM) | Fa Exp 3 ([4]; product alone at 0.50 mM) | Fa Exp 1 ([4]; product alone at 1.00 mM) | Fa Exp 2 ([4]; product alone at 1.00 mM) | Fa Exp 3 ([4]; product alone at 1.00 mM) | Average Fa [4, 7] | Fa Exp 1 ([4]; product alone at 2.00 mM) | also measured |
| --- | --- | --- | --- | --- | --- | --- | --- | --- | --- | --- | --- | --- | --- | --- | --- | --- | --- | --- | --- | --- | --- |
|  | chlorophosphoenol pyruvate [SYN857] | anti-tumour effectiveness |  |  |  |  |  |  |  |  |  |  |  |  |  |  |  |  |  |  | Average number of days of survival ± SD ([1]; 70 mg/kg/inj.): 8.78 ± 0.42 days; Median value ([1]; 70 mg/kg/inj.): 9 days; Ratio % Treated/controls (T/C%) ([1]; 70 mg/kg/inj.): >128.5%; Number of dead mice ([1]; 70 mg/kg/inj., out of 10 mice, at 9 days): 9; Average number of days of survival ± SD ([1]; 136 mg/kg/inj.): 9.00 ± 00.0 days; Median value ([1]; 136 mg/kg/inj.): 9 days; Ratio % Treated/controls (T/C%) ([1]; 136 mg/kg/inj.): >128.5%; Number of dead mice ([1]; 136 mg/kg/inj., out of 10 mice, at 9 days): 4 |
| of the order of ten micromols | CN(CCOc1ccc(CC2SC(=O)NC2=O)cc1)c1ccccn1 (centres unmarked) [Avandia ®, rosiglitazone] |  |  |  |  |  |  |  |  |  |  |  |  |  |  |  |  |  |  |  | IC50 [2]: 8.84 µM; IC50 ([3]; Calu-6, Avandia alone): 14.1 µM |
|  | CN(C)C(=N)N=C(N)N [Met, metformin] |  | 0.03 | 0.08 | 0.04 | 0.06 | 0.04 | 0.06 | 0.05 | 0.06 | 0.06 | 0.08 | 0.08 | 0.09 | 0.13 | 0.18 | 0.19 | 0.25 | 0.21 | 0.03 | Average Fa [4]: 0.07 and 0.10; Fa Exp 2 ([4]; product alone at 0.20 mM): 0.04; Fa Exp 2 ([4]; product alone at 2.00 mM): 0.31; Fa Exp 3 ([4]; product alone at 2.00 mM): 0.36; Average Fa [4, 8]: 0.32; Fa Exp 1 ([4]; product alone at 4.00 mM): 0.36; Fa Exp 2 ([4]; product alone at 4.00 mM): 0.40; Fa Exp 3 ([4]; product alone at 4.00 mM): 0.46; Average Fa [4, 9]: 0.41 |
|  | chlorophosphoenol pyruvate and carnitine ester [SYN856] | anti-tumour effectiveness |  |  |  |  |  |  |  |  |  |  |  |  |  |  |  |  |  |  | Average number of days of survival ± SD ([1]; 30 mg/kg/inj.): 9.00 ± 0.00 days; Median value ([1]; 30 mg/kg/inj.): 9 days; Ratio % Treated/controls (T/C%) ([1]; 30 mg/kg/inj.): >128.5%; Average number of days of survival ± SD ([1]; 60 mg/kg/inj.): 9.00 ± 0.00 days; Median value ([1]; 60 mg/kg/inj.): 9 days; Ratio % Treated/controls (T/C%) ([1]; 60 mg/kg/inj.): >128.5%; Number of dead mice ([1]; 60 mg/kg/inj., out of 10 mice, at 9 days): 6; effective concentration compared with chlorophosphoenol pyruvate alone (in words) ([1]; L1210 lymphoma mice): effective at a lower concentration than chlorophosphoenol pyruvate alone |
| of the order of a millimol | betaine citrate [Betain citrate] |  | 0.00 | 0.00 | 0.00 | 0.02 | 0.12 | 0.00 | 0.01 | 0.02 | 0.08 | 0.00 | 0.31 | 0.15 | 0.26 | 0.59 | 0.18 | 0.63 | 0.24 | 0.69 | Fa Exp 2 ([4]; product alone at 0.10 mM): 0.02; Average Fa ([4]; product alone at 0.25 mM, three experiments): 0.06; Average Fa ([4]; product alone at 0.50 mM, three experiments): 0.03; Fa Exp 2 ([4]; product alone at 2.00 mM): 0.37; Fa Exp 3 ([4]; product alone at 2.00 mM): 0.77; Average Fa [4, 8]: 0.47; Fa Exp 1 ([4]; product alone at 4.00 mM): 0.77; Fa Exp 2 ([4]; product alone at 4.00 mM): 0.61; Fa Exp 3 ([4]; product alone at 4.00 mM): 0.83; Average Fa [4, 9]: 0.61 |
|  | O=NN(CCCl)C(=O)NCCCl [BCNU ®, carmustine] |  |  |  |  |  |  |  |  |  |  |  |  |  |  |  |  |  |  |  | Ratio % Treated/controls (T/C%) ([1]; 15 mg/kg/inj.): >128.5%; Number of dead mice ([1]; 15 mg/kg/inj., positive control): 0; Number of dead mice ([1]; 15 mg/kg/inj., positive control, listed as BCNU): still alive |
